Laboratory results as given in US12568972B2, “Pyridazinol compounds and derivatives, preparation methods, herbicidal compositions and applications thereof” (Qingdao Kingagroot Chemical Compound Co., Ltd., priority 2018, dated 2026).

How the values were obtained:
Test in all cases: Post-emergence test, weed control effect
Format in all cases: in vivo
Conditions in all cases: after 3 weeks
Chenopodiaceae = tested on: Chenopodiaceae
Outline: (§1)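 Weeds grown from seed in soil-filled pots in a greenhouse were sprayed at the 2-3 leaf stage, 2-3 weeks after sowing, with compound in acetone/Tween-80/water plus 80% vegetable oil methyl ester synergist at 1500 g/ha. Fresh-weight inhibition was scored on a 0-10 scale after 3 weeks.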

Amaranthus retroflexus = tested on: Amaranthus retroflexus
Outline: as §1

Veronica polita = tested on: Veronica polita
Outline: as §1

Rorippa indica = tested on: Rorippa indica
Outline: as §1

Structure (SMILES)	weed control effect (activity level), Chenopodiaceae (Chenopodiaceae; Dose 3000 g/ha)	weed control effect (activity level), Amaranthus retroflexus (Amaranthus retroflexus; Dose 3000 g/ha)	weed control effect (activity level), Veronica polita (Veronica polita; Dose 3000 g/ha)	weed control effect (activity level), Rorippa indica (Rorippa indica; Dose 3000 g/ha)	further results
Cc1ccc(-c2nnc(C(F)(F)F)cc2OC(=S)OCCC(C)C)c([N+](=O)[O-])c1 [Compound 1-159]					weed control effect, Chenopodiaceae (activity level) (Chenopodiaceae; Dose 3000 g/ha): 10; weed control effect, Amaranthus retroflexus (activity level) (Amaranthus retroflexus; Dose 3000 g/ha): 10; weed control effect, Veronica polita (activity level) (Veronica polita; Dose 3000 g/ha): 10; weed control effect, Rorippa indica (activity level) (Rorippa indica; Dose 3000 g/ha): 10
CCc1cnn(C)c1-c1nnc(C(F)(F)F)cc1O [Compound 809]	10	10	10	10	
CCOc1cnn(C)c1-c1nnc(C(F)(F)F)cc1O [Compound 812]	10	10	10	10	
Cc1cc(Cl)ncc1-c1nnc(C(F)(F)F)cc1O [Compound 1018]	10	10	10	10	
N#Cc1ccc(-c2nnc(C(F)(F)F)cc2O)s1 [Compound 873]	10	10	10	10	
Cc1ccc(-c2nnc(C(F)(F)F)cc2O)cc1 [Compound 4]					weed control effect (activity level), Chenopodiaceae (Chenopodiaceae; dose 2000 g/ha): 8 (Level 8: above 80% growth inhibition rate); weed control effect (activity level), Amaranthus retroflexus (Amaranthus retroflexus; dose 2000 g/ha): 10; weed control effect (activity level), Veronica polita (Veronica polita; dose 2000 g/ha): 10; weed control effect (activity level), Rorippa indica (Rorippa indica; dose 2000 g/ha): 10
Oc1cc(C(F)(F)F)nnc1-c1cccc(I)c1 [Compound 29]					weed control effect (activity level), Chenopodiaceae (Chenopodiaceae; dose 1000 g/ha): 10; weed control effect (activity level), Amaranthus retroflexus (Amaranthus retroflexus; dose 1000 g/ha): 10; weed control effect (activity level), Veronica polita (Veronica polita; dose 1000 g/ha): 10; weed control effect (activity level), Rorippa indica (Rorippa indica; dose 1000 g/ha): 10
Oc1cc(C(F)(F)F)nnc1-c1cnc(Cl)c(Cl)c1 [Compound 994]	10	10	10	10	
Oc1cc(C(F)(F)F)nnc1-c1cncc2ccccc12 [Compound 637]	10	10	10	10	
COc1cc(-c2nnc(C(F)(F)F)cc2O)n(C)n1 [Compound 782]	10	10	10	10	
O=Cc1ccc(F)cc1-c1nnc(C(F)(F)F)cc1O [Compound 67]					weed control effect (activity level), Chenopodiaceae (Chenopodiaceae; dose 1000 g/ha): 10; weed control effect (activity level), Amaranthus retroflexus (Amaranthus retroflexus; dose 1000 g/ha): 10; weed control effect (activity level), Veronica polita (Veronica polita; dose 1000 g/ha): 10; weed control effect (activity level), Rorippa indica (Rorippa indica; dose 1000 g/ha): 10
Cn1ncc(C(F)(F)F)c1-c1nnc(C(F)(F)F)cc1O [Compound 823]	10	10	10	10	
Oc1cc(C(F)(F)F)nnc1-c1cccc(Br)c1F [Compound 48]					weed control effect (activity level), Chenopodiaceae (Chenopodiaceae; dose 1000 g/ha): 10; weed control effect (activity level), Amaranthus retroflexus (Amaranthus retroflexus; dose 1000 g/ha): 10; weed control effect (activity level), Veronica polita (Veronica polita; dose 1000 g/ha): 10; weed control effect (activity level), Rorippa indica (Rorippa indica; dose 1000 g/ha): 10
CC(C)=Cc1nnc(C(F)(F)F)cc1O [Compound 1523]	10	10	10	10	
Oc1cc(C(F)(F)F)nnc1-c1ccc(C2CC2Cl)cc1 (stereo not drawn) [Compound 111]					weed control effect (activity level), Chenopodiaceae (Chenopodiaceae; dose 1000 g/ha): 10; weed control effect (activity level), Amaranthus retroflexus (Amaranthus retroflexus; dose 1000 g/ha): 10; weed control effect (activity level), Veronica polita (Veronica polita; dose 1000 g/ha): 10; weed control effect (activity level), Rorippa indica (Rorippa indica; dose 1000 g/ha): 10
Oc1cc(C(F)(F)F)nnc1-c1cccnc1Cl [Compound 205]					weed control effect (activity level), Chenopodiaceae (Chenopodiaceae; dose 2000 g/ha): 10; weed control effect (activity level), Amaranthus retroflexus (Amaranthus retroflexus; dose 2000 g/ha): 10; weed control effect (activity level), Veronica polita (Veronica polita; dose 2000 g/ha): 10; weed control effect (activity level), Rorippa indica (Rorippa indica; dose 2000 g/ha): 10
O=S(=O)(NCCCCl)Oc1cc(C(F)(F)F)nnc1-c1cccc(F)c1 [Compound 1-124]					weed control effect, Chenopodiaceae (activity level) (Chenopodiaceae; Dose 3000 g/ha): 10; weed control effect, Amaranthus retroflexus (activity level) (Amaranthus retroflexus; Dose 3000 g/ha): 10; weed control effect, Veronica polita (activity level) (Veronica polita; Dose 3000 g/ha): 10; weed control effect, Rorippa indica (activity level) (Rorippa indica; Dose 3000 g/ha): 10
Oc1cc(C(F)(F)F)nnc1-c1cncc(I)c1 [Compound 971]	10	10	10	10	
Cn1ncc(Cl)c1-c1nnc(C(F)(F)F)cc1O [Compound 805]	10	10	10	10	
Cn1ncc(C(F)F)c1-c1nnc(C(F)(F)F)cc1O [Compound 824]	10	10	10	10	
Oc1cc(C(F)(F)F)nnc1-c1ccc2c(c1)OC(F)(F)O2 [Compound 1286]	10	10	10	10	
